≈ marks a conversion by molar mass, not a printed value. Read-outs that look alike come from different tables or passages of the source.
How the values were obtained:
Assay type in all cases: cell-based
[1] = tested on: K. pneumoniae A15130; experiment: M.I.C. by tube dilution, K. pneumoniae A15130; settings: Klebsiella pneumoniae
[2] = tested on: S. aureus Smith A9537; experiment: M.I.C. by tube dilution, S. aureus Smith A9537; settings: for MIC: Staphylococcus aureus
[3] = tested on: Pr. morganii A15153; experiment: M.I.C. by tube dilution, Pr. morganii A15153; settings: Morganella morganii
[4] = tested on: Sal. enteritidis A9531; experiment: M.I.C. by tube dilution, Sal. enteritidis A9531; settings: for MIC: Salmonella enterica, ENTERITIDIS
[5] = tested on: Pr. mirabilis A9900; experiment: M.I.C. by tube dilution, Pr. mirabilis A9900; settings: Proteus mirabilis
[6] = tested on: Ps. aeruginosa A9843A; experiment: microbe, parasite or virus in culture; settings: Pseudomonas aeruginosa
[7] = tested on: Str. pyogenes A9604; experiment: M.I.C. by tube dilution, Str. pyogenes A9604; settings: Streptococcus pyogenes
[8] = tested on: E. coli A9675; experiment: M.I.C. by tube dilution, E. coli A9675; settings: Escherichia coli
[9] = tested on: K. pneumoniae A9977; experiment: M.I.C. by tube dilution, K. pneumoniae A9977; settings: Klebsiella pneumoniae
[10] = tested on: E. coli Juhl A15119; experiment: M.I.C. by tube dilution, E. coli Juhl A15119; settings: for MIC: Escherichia coli, JUHLA15119
[11] = tested on: S. aureus meth.-resist; A15097; experiment: M.I.C. by tube dilution, S. aureus meth.-resist A15097; settings: Staphylococcus aureus, at 10^-3 dil'n, overnight 37° C.
[12] = tested on: S. aureus BX1633-2 A9606; experiment: M.I.C. by tube dilution, S. aureus BX1633-2 A9606; settings: Staphylococcus aureus, overnight 37° C.
[13] = tested on: D. pneumoniae A9585; experiment: M.I.C. by tube dilution, D. pneumoniae A9585; settings: for MIC: Streptococcus pneumoniae, A9585
[14] = tested on: Ser. marcescens A20019; experiment: M.I.C. by tube dilution, Ser. marcescens A20019; settings: Serratia marcescens
[15] = at 10^-4 dilution, overnight 37° C., read-out: M.I.C.
[16] = +5% serum, 50% Nutrient Broth - 45% Antibiotic Assay Broth, overnight 37° C., read-out: M.I.C.
[17] = SMITHA9537, Table 9, compound of Ex. No., serum and dilution not given, read-out: M.I.C. S. aureus A9537
[18] = Table 9, compound of Ex. No., dilution not given, read-out: M.I.C. Sal. enteritidis A9531
[19] = Table 9, compound of Ex. No., dilution not given, read-out: M.I.C. E. coli A15119
[20] = Table 9, compound of Ex. No., serum not given, read-out: M.I.C. D. pneumoniae A9585
[21] = Table 9, compound of Ex. No., dilution not given

| SMILES | MIC [2, 17] [µg/mL] | MIC [4, 18] [µg/mL] | MIC [10, 19] [µg/mL] | MIC [13, 20] [µg/mL] | also measured |
| --- | --- | --- | --- | --- | --- |
| O=C(COc1ccccc1)N[C@@H]1C(=O)N2C(C(=O)O)=COC[C@H]12 (relative stereo) [BC-L2, potassium 7 β-phenoxyacetamido-Δ^3 -O-2-isocephem-4-carboxylate] | – | – | – | – | MIC [1]: > 125 µg/mL; MIC ([2]; SMITHA9537, +50% serum, at 10^-4 dilution, overnight 37° C.): 1 µg/mL; MIC ([2]; SMITHA9537, at 10^-4 dilution, overnight 37° C., read-out: M.I.C.): 1.3 µg/mL; MIC [3]: > 125 µg/mL; MIC [4]: 16 µg/mL; MIC [5, 15]: 63 µg/mL; MIC [6]: > 125 µg/mL; MIC [7, 16]: 0.6 µg/mL; MIC [8]: > 125 µg/mL; MIC [9]: 32 µg/mL; MIC [10, 15]: 63 µg/mL; MIC [11]: > 125 µg/mL; MIC ([12]; BX16332A9606, at 10^-2 dil'n): > 125 µg/mL; MIC ([12]; BX16332A9606, at 10^-3 dil'n, read-out: M.I.C.): 2.5 µg/mL; MIC [13, 16]: 0.6 µg/mL; MIC [14]: > 125 µg/mL |
| CC1=C(C(=O)O)N2C(=O)[C@@H](NC(=O)Cc3ccccc3CN)[C@H]2CO1 (relative stereo) [Example 24, 7β-(2-Aminomethylphenylacetamido)-3-methyl-Δ^3 -O-2-isocephem-4-carboxylic acid] | 0.6 (≈ 1.74 µM) | > 2.5 | 16 (≈ 46.3 µM) | 0.08 (≈ 0.232 µM) | – |
| COc1cccc(OC)c1C(=O)N[C@@H]1C(=O)N2C(C(=O)O)=C(C)OC[C@H]12 (relative stereo) [Example 26, 7β-(2,6-Dimethoxybenzamido)-3-methyl-Δ^3 -O-2-isocephem-4-carboxylic acid] | > 125 | 32 (≈ 88.3 µM) | > 125 | 32 (≈ 88.3 µM) | – |
| CC1=C(C(=O)O)N2C(=O)[C@@H](NC(=O)CNC(=N)Cc3ccccc3)[C@H]2CO1 (relative stereo) [Example 28, 7β-[N-(Phenylacetimidoyl)aminoacetamido]-3-methyl-Δ^3 -O-2-isocephem-4-carboxylic acid] | 4 (≈ 10.7 µM) | 125 (≈ 336 µM) | > 125 | 0.5 (≈ 1.34 µM) | – |
| CC1=C(C(=O)O)N2C(=O)[C@@H](NC(=O)NCOc3ccccc3)[C@H]2CO1 (relative stereo) [Example 31] | 32 (≈ 92.1 µM) | > 125 | > 125 | 16 (≈ 46.1 µM) | – |
| CC1=C(C(=O)O)N2C(=O)[C@@H](NC(=O)Cc3ccccc3)[C@H]2CO1 (relative stereo) [Example 32, 7β-Phenylacetamido-3-methyl-Δ^3-0-2-isocephem-4-carboxylic acid] | 1 (≈ 3.16 µM) | 4 (≈ 12.6 µM) | 125 (≈ 395 µM) | 0.5 (≈ 1.58 µM) | – |
| CC1=C(C(=O)O)N2C(=O)[C@@H](NC(=O)Cc3cccs3)[C@H]2CO1 (relative stereo) [Example 33, 7β-(2-Thienylacetamido)-3-methyl-Δ^3-0-2-isocephem-4-carboxylic acid] | 1 (≈ 3.1 µM) | 2 (≈ 6.2 µM) | 32 (≈ 99.3 µM) | 0.25 (≈ 0.776 µM) | – |
| CC1=C(C(=O)O)N2C(=O)[C@@H](NC(=O)Cc3ccccc3O)[C@H]2CO1 (relative stereo) [Example 35, 7β-(o-Hydroxyphenylacetamido)-3-methyl-Δ^3-0-2-isocephem-4-carboxylic acid] | 0.5 (≈ 1.5 µM) | > 125 | > 125 | 0.25 (≈ 0.752 µM) | – |
| CC1=C(C(=O)O)N2C(=O)[C@@H](NC(=O)CC#N)[C@H]2CO1 (relative stereo) [Example 36, 7β-[Cyanoacetamido]-3-methyl-Δ^3-0-2-isocephem-4-carboxylicacid] | 4 (≈ 15.1 µM) | 125 (≈ 471 µM) | 125 (≈ 471 µM) | 0.5 (≈ 1.89 µM) | – |
| CC1=C(C(=O)O)N2C(=O)[C@@H](NC(=O)c3c(-c4ccccc4Cl)noc3C)[C@H]2CO1 (relative stereo) [Example 39, 7β-[3-(o-chlorophenyl)-5-methyl-isoxazol-4-ylcarboxamido]-3-methyl-Δ^3-0-2-isocephem-4-carboxylic acid] | > 8 | > 125 | > 125 | 8 (≈ 19.1 µM) | – |
| N[C@@H](C(=O)N[C@@H]1C(=O)N2C(C(=O)O)=COC[C@H]12)c1ccccc1 [BC-L6, 7β-(D-α-aminophenylacetamido)-Δ^3 -O-2-isocephem-4-carboxylic acid] | – | – | – | – | MIC [1]: 125 µg/mL (≈ 394 µM); MIC ([2]; SMITHA9537, +50% serum, at 10^-4 dilution, overnight 37° C., read-out: M.I.C.): 250 µg/mL (≈ 788 µM); MIC ([2]; SMITHA9537, at 10^-4 dilution, overnight 37° C.): 32 µg/mL (≈ 101 µM); MIC [3, 15]: > 500 µg/mL; MIC [4]: 32 µg/mL (≈ 101 µM); MIC [5]: 125 µg/mL (≈ 394 µM); MIC [6]: > 500 µg/mL; MIC [7]: 16 µg/mL (≈ 50.4 µM); MIC [8, 15]: 250 µg/mL (≈ 788 µM); MIC [9, 15]: 63 µg/mL (≈ 199 µM); MIC [10]: 125 µg/mL (≈ 394 µM); MIC ([11]; read-out: M.I.C.): > 500 µg/mL; MIC ([12]; BX16332A9606, at 10^-2 dil'n, read-out: M.I.C.): 500 µg/mL (≈ 1580 µM); MIC ([12]; BX16332A9606, at 10^-3 dil'n): 125 µg/mL (≈ 394 µM); MIC [13]: 16 µg/mL (≈ 50.4 µM); MIC [14, 15]: > 500 µg/mL |
| CC1=C(C(=O)O)N2C(=O)[C@@H](NC(=O)C(NC(=O)NC(=O)c3ccccc3)c3ccccc3)[C@H]2CO1 (stereo partly drawn) [Example 25, 7β-(α-Benzoylureidophenylacetamido)-3-methyl-Δ^3 -O-2-isocephem-4-carboxylic acid] | 0.6 (≈ 1.25 µM) | 8 (≈ 16.7 µM) | 63 (≈ 132 µM) | 0.3 (≈ 0.627 µM) | – |
| CC1=C(C(=O)O)N2C(=O)[C@@H](NC(=O)[C@H](O)c3ccccc3)[C@H]2CO1 [Example 27, 7β-(D-α-Hydroxyphenylacetamido)-3-methyl-Δ^3 -O-2-isocephem-4-carboxylic acid] | 2 (≈ 6.02 µM) | 8 (≈ 24.1 µM) | 16 (≈ 48.1 µM) | 1 (≈ 3.01 µM) | – |
| CCCCC(=O)NC1C(=O)N2C(C(=O)O)=C(C)OCC12 (stereo not drawn) [Example 29, 7β-Valeramido-3-methyl-Δ^3 -O-2-isocephem-4-carboxylic acid] | 125 (≈ 443 µM) | > 125 | > 125 | 125 (≈ 443 µM) | – |
| CC1=C(C(=O)O)N2C(=O)[C@@H](NC(=O)C(C(=O)O)c3ccccc3)[C@H]2CO1 (stereo partly drawn) [Example 34, 7β-[α-carboxy-α-phenylacetamido]-3-methyl-Δ^3-0-2-isocephem-4-carboxylic acid] | 16 (≈ 44.4 µM) | 32 (≈ 88.8 µM) | 125 (≈ 347 µM) | 4 (≈ 11.1 µM) | – |
| CC1=C(C(=O)O)N2C(=O)C(NC(=O)Cn3ncnn3)C2CO1 (stereo not drawn) [Example 37, 7β-[2-(2H)-tetrazolylacetamido]-3-methyl-Δ^3-0-2-isocephem-4-carboxylic acid] | – | – | – | – | M.I.C. S. aureus A9537 ([2]; Table 9, compound of Ex. No., serum and dilution not given): > 125 µg/mL; M.I.C. Sal. enteritidis A9531 [4, 21]: > 125 µg/mL; M.I.C. E. coli A15119 [10, 21]: > 125 µg/mL; M.I.C. D. pneumoniae A9585 ([13]; Table 9, compound of Ex. No., serum not given): 125 µg/mL |
| CCOC(=O)NC1C(=O)N2C(C(=O)O)=C(C)OCC12 (stereo not drawn) [Example 38, 7β-(Ethoxycarboxamido)-3-methyl-Δ^3-0-2-isocephem-4-carboxylic acid] | 125 (≈ 463 µM) | > 125 | > 125 | 32 (≈ 118 µM) | – |

Source: US4113946A, “Δ^2,3 -1,4-Morpholine-2-carboxylic acid derivatives as antibacterial agents” (Bristol-Myers Company, priority 1977, dated 1978)
